The numbers were not newly measured in patent publication US20220400668A1, “MICROEMULSION COMPOSITIONS OF TOPRAMEZONE” (BASF SE, priority 2018, published 2022), which cites them from elsewhere.

For the data set the following is noted: 25° C.

Each structure is given as a SMILES string.

Consider `Cc1c(C(=O)c2cnn(C)c2O)ccc(S(C)(=O)=O)c1C1=NOCC1` [topramezone, 4-[3-(4,5-dihydro-1,2-oxazol-3-yl)-2-methyl-4-methylsulfonylbenzoyl]-2-methyl-1H-pyrazol-3-one], for which the solubility in water entry is “about 0.305 g/L”.
